Read-outs that look alike come from different tables or passages of the source.

These results are taken from US20170246124A1, “TREATMENT OF LEIGH SYNDROME AND LEIGH-LIKE SYNDROME WITH TOCOTRIENOL QUINONES” (BioElectron Technology Corporation, priority 2009, published 2017).

Data set [1] in a line: Animal study of alpha-tocotrienol quinone administration, pharmacokinetics in fasted dogs. The conditions noted are these: dog, in vivo, po, 10 mg/kg. On the procedure:
(§1) The particular dosage appropriate for a specific patient is determined by dose titration. […] There is less than dose-proportionality since for an increase in doses of 2.4:6:10:20 there is only an increase in AUCs of 1.5:2.8:4.0:6.7. This lack of dose-proportionality may be due to decreased absorption since there is no change in t1/2 over dose range. Alpha-tocotrienol quinone tested in rats was safe when given acutely up to 2000 mg/kg.

The subject of data set [2] is patient with Leigh Syndrome. The data set is described as follows: Treatment of a Leigh Syndrome patient (Example 3), observed function. Format: in vivo, human. The conditions noted are these: Example 3 patient. On the procedure:
A patient with Leigh Syndrome was treated with alpha-tocotrienol quinone. Informed consent was obtained from the child's parents in accordance with federal regulations and institutional protocol. A mutation was identified in the SURF-1 gene of the patient.
At the start of treatment, the patient was unable to control their extremities. […] The patient also gained weight.

Data set [3] has as its system SURF-1 fibroblasts. The data set is described as follows: Surfeit-1 (SURF1) cell line assay: rescue of BSO-stressed patient fibroblasts, Calcein AM viability. Format: cell-based. To be noted: Homo sapiens, Fibroblast, BSO-stressed fibroblasts of the Example 2 patient. On the procedure:
Alpha-Tocotrienol quinone, its redox-silent version (the bis-Boc protected corresponding hydroquinone), and solvent controls were tested for their ability to rescue cells from SURF-1 fibroblasts of the patient diagnosed with SURF-1 described in Example 2, when the cells were stressed by addition of L-buthionine-(S,R)-sulfoximine (BSO), as described in Jauslin et al., Hum. Mol. Genet. 11(24):3055 (2002), Jauslin et al., FASEB J. 17:1972-4 (2003), and International Patent Application WO 2004/003565. EC50 concentrations of test compound and its redox-silent version were determined and compared. The following compound, 2-((6E,10E)-3-hydroxy-3,7,11,15-tetramethylhexadeca-6,10,14-trienyl)-3,5,6-trimethyl-bis(t-butyloxycarbonyl)benzene-1,4-diol, the bis-Boc protected hydroquinone form of alpha-tocotrienol quinone, was used as the “redox-silent” alpha tocotrienol quinone, or αTTQ-RS.
MEM (a medium enriched in amino acids and vitamins, catalog no. 1-31F24-I) and Medium 199 (M199, catalog no. 1-21F22-I) with Earle's Balanced Salts, without phenol red, were purchased from Bioconcept. Fetal Calf Serum was obtained from PAA Laboratories. Basic fibroblast growth factor and epidermal growth factor were purchased from PeproTech. Penicillin-streptomycin-glutamine mix, L-buthionine (S,R)-sulfoximine, and insulin from bovine pancreas were purchased from Sigma. […]

Data set [4] can be described thus: Treatment of a Leigh Syndrome patient with SURF-1 mutations (Example 2): drug levels in plasma and CSF. In kind it is in vivo, human. To be noted: Example 2 patient. On the procedure:
(§2) The patient's weight was approximately 10 kg. Alpha-tocotrienol quinone was administered to the patient via gastrointestinal feeding tube; the drug was mixed with sesame oil for administration. The following dosing of alpha-tocotrienol quinone was used:
Full pharmacokinetic sampling (post dose, 3 h, 6 h, 10 h, 24 h, 36 h, 48 h, and 72 h) was done after administration of the initial dose. 0.5 mL of blood were taken at each time point, for a total of four mL of blood drawn at 72 h. Bio-analysis and pharmacokinetic calculations were conducted.
The minimal effective dose of alpha-tocotrienol quinone was determined. The concentration 24 hours after dosing (C24h) was expected to be 220.5 ng/ml (0.504), while the minimal effective dose was expected to be around 150 mg. Thus, the daily dosage was escalated stepwise.
The concentration of alpha tocotrienol quinone was monitored in the patient. […] Alpha tocotrienol quinone was present at 1.3 ng/ml in CSF.

A short description of data set [5]: Animal study of alpha-tocotrienol quinone administration, pharmacokinetics in rats. The conditions noted are these: rat, in vivo, 10 mg/kg. The procedure: as §1
Data set [6] concerns patient with Leigh Syndrome. The data set is described as follows: Treatment of a Leigh Syndrome patient with SURF-1 mutations (Example 2): lactate, MRI, adverse events. In kind it is in vivo, human. To be noted: Example 2 patient. The procedure:
A patient with Leigh Syndrome was treated with alpha-tocotrienol quinone. Informed consent was obtained from the child's parents in accordance with federal regulations and institutional protocol. Two mutations were identified in the SURF-1 gene of the patient.
as §2
The patient returned for a review of safety and efficacy evaluation, including CNS lactate/pyruvate ratios as determined by non-invasive means (MRI/MRS) and ECHO. The following efficacy parameters were evaluated: PK parameters; magnetic resonance spectroscopy of central nervous system; echocardiography and electrocardiogram; and plasma and urine analytes.
Lactic acid measurements were as follows:
Magnetic resonance imaging of the patient was performed to assess the effect of treatment. […] These findings are consistent with Leigh Syndrome encephalopathies.
Close monitoring of the patient during the study was performed, to detect any adverse events. In addition, the investigator had authority to stop the study if the safety of the subject was at risk.

A short description of data set [7]: Blood-brain barrier crossing, homogenized brains of mice dosed IP. In kind it is in vivo. To be noted: C57/BL mice dosed IP at 25 mg/kg, FIG. 5.
For data set [8] the following is noted: rat, in vivo. On the procedure: as §1
The starting dose can be estimated based on the United States Food and Drug Administration guidelines titled “Estimating the Maximum Safe Starting Dose in Initial Clinical Trials for Therapeutics in Adult Healthy Volunteers” (July 2005) as well as the International Conference on Harmonisation of Technical Requirements for Registration of Pharmaceuticals for Human Use (ICH) guidelines titled “Guidance on Non-clinical Safety Studies for the Conduct of Human Clinical Trials and Marketing Authorization for Pharmaceuticals” (July 2008). Per ICH guidelines, predicted exposures from the starting dose should not exceed 1/50th the NOAEL (No-Adverse-Observed-Effect-Level) in the more sensitive species on a mg/m^2 basis. Following a single oral dose of alpha-tocotrienol quinone, the NOAEL was established to be 500 mg/kg for the female rat, i.e. 3,000 mg/m2. This dosage would be equivalent to 81 mg/kg in an adult human. […]

Where [9] appears, read: after treatment compared with pre-treatment MRI.

The bioavailability is the share of a dose that reaches the circulation, judged against a reference dose that is usually intravenous. High values mean much systemic uptake, low ones little systemic uptake. As a reminder, the EC50 is the concentration at which the effect is half-maximal. Turning to `CC(C)=CCC/C(C)=C/CC/C(C)=C/CCC(C)(O)CCC1=C(C)C(=O)C(C)=C(C)C1=O` (stereo not drawn) [alpha-tocotrienol quinone, Alpha-tocotrienol quinone], in data set [1], the bioavailability is roughly 16%. Further, the control of extremities result in data set [2] (after 22 days of treatment, unable to control extremities at start) was “able to move their arm in the “high-five” gesture”. Also, in data set [2] (after 379 days of treatment), the motor function entry is on record as “able to sit upright” and the weight gained is 15 pounds. In data set [2] (under treatment), the gastrointestinal function result is listed as “greatly improved” and the sleep result was “improved”. The EC50 in data set [3] (FIG. 1 experiment run beside Coenzyme Q10, read-out: EC50, viability of cells with a SURF-1 mutation (FIG. 1)) was 27 nM. For the same compound, the EC50 in data set [3] (FIG. 2 experiment run beside αTTQ-RS, read-out: EC50, viability of cells with a SURF-1 mutation (FIG. 2)) was 21 nM. Besides, the “concentration 24 hours after dosing (C24h), expected” value in data set [4] (expectation before dose escalation) is 220.5 ng/mL. This compound also registered a concentration at 98 day of treatment in data set [4] (human, cerebrospinal fluid, other: via gastrointestinal feeding tube, 98th day of treatment, FIG. 9) of 1.3 ng/mL. The compound further gave a bioavailability in data set [5] of roughly 90%. Besides, the adverse events entry in data set [6] (close monitoring during the study, FIG. 7) was “No adverse events were observed”. Further, in data set [6] (3.6 mM approximately 4 months prior to treatment, normal range 1.0 to 1.4 mM), the “plasma lactate level after treatment” value came out at 1.1 mM. In addition, the “CSF lactate level after treatment” value in data set [6] (46.5 mg/dL about 2 years pre-treatment) came to 24.0 mg/dL. In data set [6] (setting [9]), the “MRI: T2 hyperintensities of midbrain, pons, medulla and cerebellum” value is on record as “interval improvement”; the “MRI: amount of lesions” value is reported as “overall decrease”. Moreover, in data set [6] (after treatment vs about 2 years pre-treatment), the “reduction of CSF lactate” value is listed as 48.4%. Further, the “reduction of plasma lactate” value in data set [6] (after treatment vs approximately 4 months prior) was 69.4%. The “decrease in brain lactate” value in data set [6] (two days prior to treatment to approximately 98 days after starting) is 20-30%. Moreover, in data set [7], the “crosses the blood-brain barrier” value is given as “crosses the blood-brain barrier”. Moreover, the “dose at which safe when given acutely” value in data set [8] is “up to 2000 mg/kg”. In addition, the “NOAEL on mg/m2 basis” value in data set [8] (po) is listed as 3,000 mg/m2.
